# Measured values from patent publication US9738600B2, “ROR gamma (RORγ) modulators” (LEAD PHARMA CEL MODELS IP B.V., priority 2013, dated 2017).
# Molecular target: T1, RORγ (Homo sapiens, UniProt P51449)
# T1 sequence (P51449 269-508 limits assumed): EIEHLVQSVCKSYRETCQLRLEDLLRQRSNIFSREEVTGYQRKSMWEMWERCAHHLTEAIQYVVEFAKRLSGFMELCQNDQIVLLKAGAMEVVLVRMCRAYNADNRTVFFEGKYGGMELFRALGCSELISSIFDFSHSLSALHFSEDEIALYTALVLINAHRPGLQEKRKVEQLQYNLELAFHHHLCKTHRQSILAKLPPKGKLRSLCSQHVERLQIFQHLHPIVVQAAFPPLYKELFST
# Assay: RORγ GAL4 reporter gene assay
# Conditions: mean pIC50, inhibition of RORγ (GAL4-RORγ-LBD) in 293FT cells, luciferase readout, overnight incubation
# Text: The RORγ ligand-binding domain (LBD) was fused to the yeast GAL4 DNA binding domain (DBD) and placed under the control of the human cytomegalovirus (CMV) immediate early promoter, using expression vector pFN26A (Promega) and standard recombinant DNA cloning methods.
# To monitor the inhibitory effect of compounds on RORγ, a transcriptional reporter construct was used. The pGL4.35 vector (Promega) contains nine copies of the GAL4 Upstream Activator Sequence (UAS). This sequence drives the transcription of the luciferase reporter gene luc2P in response to binding of a fusion protein containing the GAL4 DNA binding domain, as for example expressed by the GAL4-RORγ-LBD and GAL4-VP16 expression vectors described above.
# The day after transfection, cells were plated into 96 well plates, test compound was added and the plates were incubated overnight. Subsequently, the firefly luciferase activity was quantified using luciferase detection reagent and luminescence readout.
# 1500 μL of this reagent mixture was added to 5 μg of GAL4 fusion protein expression vector and 5 μg of the transcriptional reporter construct, and incubated at RT for 20 minutes.
# Subsequently, the cells were washed with Phosphate Buffered Saline (PBS) (Lonza), after which the PBS was removed. To dissociate the cells, 1 ml of TrypLE Express (Invitrogen) was added to the flask, followed by incubation at RT until the cells visually started to detach. Cells were collected in 5 mL of assay medium (DMEM culture medium (Lonza), 10% dialyzed FBS (Invitrogen) and Pen/Strep (Lonza)) to achieve a single cell suspension. 10×10^6 cells were spun down and re-suspended in 10 mL of assay medium. Subsequently, the cell suspension was added to the transfection mix tube, and then transferred as a whole to a T75 flask (Greiner), followed by overnight (16-24 hours) incubation at 37° C. and 5% CO2.
# For compound screening, the cells were harvested (as described above) and counted. […] 80 μL of cell suspension (60,000 cells) was plated per well into a white, flat bottom, tissue culture treated, 96 well screening plates (Greiner).
# Test compounds were diluted, starting from a 10 mM dimethylsulfoxide (DMSO) stock solution, to serial dilutions in DMSO at 500× the final test concentration. Subsequently, these solutions were diluted to 5× the final test concentration in two 10-fold-dilution steps in assay medium. The final DMSO concentration of the 5× test compound solution was 1%. 20 μL of the 5× test compound solution was added to each test well of the 96 well plate previously plated with 80 μl cell suspension, resulting in the final test concentration with 0.2% DMSO.
# The plates were incubated overnight (16-24 hours) at 37° C. and 5% CO2.
# For the luciferase readout, the luciferase reagent (Britelite Plus, Perkin Elmer) was brought to RT. […] The luciferase luminescence signal was measured using a Wallac Victor Microplate Reader (Perkin Elmer).
# The half maximum inhibitory concentration (IC50) values for the test compounds were calculated from the luciferase signal using GraphPad Prism software (GraphPad Software).
row,IC50,SMILES
1,≤ 1000 nM,"O=C(Cc1cccc(S(=O)(=O)NC2CC2)c1)Nc1ccc(C(O)(C(F)(F)F)C(F)(F)F)c(F)c1 [Example 38, 2-(3-(N-cyclopropylsulfamoyl)phenyl)-N-(3-fluoro-4-(1,1,1,3,3,3-hexafluoro-2-hydroxypropan-2-yl)phenyl)acetamide]"
2,≤ 100 nM,"CC(C(=O)Nc1ccc(C(O)(C(F)(F)F)C(F)(F)F)cc1)c1ccc(S(=O)(=O)CC2CC2)cc1 (centres unmarked) [Example 109, 2-(4-((cyclopropylmethyl)sulfonyl)phenyl)-N-(4-(1,1,1,3,3,3-hexafluoro-2-hydroxypropan-2-yl)phenyl)propanamide]"
3,≤ 10 nM,"O=C(Cc1ccc(S(=O)(=O)CC2CC2)cc1)Nc1ccc(C(O)(C2CCCC2)C(F)(F)F)cc1 (centres unmarked) [Example 75, N-(4-(1-cyclopentyl-2,2,2-trifluoro-1-hydroxyethyl)phenyl)-2-(4-((cyclopropylmethyl)sulfonyl)phenyl)acetamide]"
4,≤ 100 nM,"CC(C)(C)CC(O)(c1ccc(NC(=O)Cc2ccc(S(=O)(=O)NC3CC3)cc2)cc1)C(F)(F)F (centres unmarked) [Example 94, 2-(4-(N-cyclopropylsulfamoyl)phenyl)-N-(4-(1,1,1-trifluoro-2-hydroxy-4,4-dimethylpentan-2-yl)phenyl)acetamide]"
5,≤ 1000 nM,"CCS(=O)(=O)c1ccc(CC(=O)Nc2ccc(C(O)(C3CCCC3)C(F)(F)F)cc2)cc1 (centres unmarked) [Example 85, N-(4-(1-cyclopentyl-2,2,2-trifluoro-1-hydroxyethyl)phenyl)-2-(4-(ethylsulfonyl)phenyl)acetamide]"
6,≤ 100 nM,"CCCOC(c1ccc(NC(=O)Cc2ccc(S(=O)(=O)NC3CC3)cc2)cc1)(C(F)(F)F)C(F)(F)F [Example 61, 2-(4-(N-cyclopropylsulfamoyl)phenyl)-N-(4-(1,1,1,3,3,3-hexafluoro-2-propoxypropan-2-yl)phenyl)acetamide]"
7,≤ 1000 nM,"CCS(=O)(=O)c1ccc(CC(=O)Nc2ccc(C(O)(C3CC3)C(F)(F)F)cc2)cc1 (centres unmarked) [Example 73, N-(4-(1-cyclopropyl-2,2,2-trifluoro-1-hydroxyethyl)phenyl)-2-(4-(ethylsulfonyl)phenyl)acetamide]"
8,≤ 100 nM,"CC(C)CC(O)(c1ccc(NC(=O)Cc2ccc(S(=O)(=O)NC3CC3)cc2)cc1)C(F)(F)F (centres unmarked) [Example 76, 2-(4-(N-cyclopropylsulfamoyl)phenyl)-N-(4-(1,1,1-trifluoro-2-hydroxy-4-methylpentan-2-yl)phenyl)acetamide]"
9,≤ 100 nM,"O=C(Cc1ccc(S(=O)(=O)CC2CC2)cc1)Nc1ccc(C(O)(C(F)(F)F)C(F)(F)F)c(Cl)c1 [Example 62, N-(3-chloro-4-(1,1,1,3,3,3-hexafluoro-2-hydroxypropan-2-yl)phenyl)-2-(4-((cyclopropylmethyl)sulfonyl)phenyl)acetamide]"
10,≤ 1000 nM,"CCS(=O)(=O)c1ccc(CC(=O)Nc2ccc(C(O)(CC3CCCCC3)C(F)(F)F)cc2)cc1 (centres unmarked) [Example 74, N-(4-(3-cyclohexyl-1,1,1-trifluoro-2-hydroxypropan-2-yl)phenyl)-2-(4-(ethylsulfonyl)phenyl)acetamide]"
11,≤ 1000 nM,"CCS(=O)(=O)c1ccc(CC(=O)Nc2c(C)cc(C(O)(C(F)(F)F)C(F)(F)F)cc2C)cc1 [Example 23, 2-(4-(ethylsulfonyl)phenyl)-N-(4-(1,1,1,3,3,3-hexafluoro-2-hydroxypropan-2-yl)-2,6-dimethylphenyl)acetamide]"
12,≤ 1000 nM,"CC(O)(c1ccc(NC(=O)Cc2ccc(S(=O)(=O)NC3CC3)cc2)cc1)C(F)(F)F (centres unmarked) [Example 78, 2-(4-(N-cyclopropylsulfamoyl)phenyl)-N-(4-(1,1,1-trifluoro-2-hydroxypropan-2-yl)phenyl)acetamide]"
13,≤ 1000 nM,"O=C(Cc1cccc(S(=O)(=O)NC2CC2)c1)Nc1ccc(C(O)(C(F)(F)F)C(F)(F)F)cc1F [Example 40, 2-(3-(N-cyclopropylsulfamoyl)phenyl)-N-(2-fluoro-4-(1,1,1,3,3,3-hexafluoro-2-hydroxypropan-2-yl)phenyl)acetamide]"
14,≤ 1000 nM,"Nc1cc(C(O)(C(F)(F)F)C(F)(F)F)ccc1NC(=O)Cc1ccc(S(=O)(=O)CC2CC2)cc1 [Example 57, N-(2-amino-4-(1,1,1,3,3,3-hexafluoro-2-hydroxypropan-2-yl)phenyl)-2-(4-((cyclopropylmethyl)sulfonyl)phenyl)acetamide]"
15,≤ 1000 nM,"CCS(=O)(=O)c1ccc(CC(=O)Nc2ccc(C(O)(c3ccccc3)C(F)(F)F)cc2)cc1 (centres unmarked) [Example 97, 2-(4-(ethylsulfonyl)phenyl)-N-(4-(2,2,2-trifluoro-1-hydroxy-1-phenylethyl)phenyl)acetamide]"
16,≤ 1000 nM,"CCS(=O)(=O)c1ccc(CC(=O)Nc2ccc(C(O)(CC3CCCC3)C(F)(F)F)cc2)cc1 (centres unmarked) [Example 86, N-(4-(3-cyclopentyl-1,1,1-trifluoro-2-hydroxypropan-2-yl)phenyl)-2-(4-(ethylsulfonyl)phenyl)acetamide]"

row,IC50,SMILES
1,≤ 100 nM,"O=C(Cc1ccc(S(=O)(=O)NC2CC2)cc1)Nc1ccc(C(O)(C(F)(F)F)C(F)(F)F)cc1 [Example 9, 2-(4-(N-cyclopropylsulfamoyl)phenyl)-N-(4-(1,1,1,3,3,3-hexafluoro-2-hydroxypropan-2-yl)phenyl)acetamide]"
2,≤ 1000 nM,"CCC(O)(c1ccc(NC(=O)Cc2ccc(S(=O)(=O)NC3CC3)cc2)cc1)C(F)(F)F (centres unmarked) [Example 79, 2-(4-(N-cyclopropylsulfamoyl)phenyl)-N-(4-(1,1,1-trifluoro-2-hydroxybutan-2-yl)phenyl)acetamide]"
3,≤ 1000 nM,"O=C(Cc1ccc(S(=O)(=O)NC2CC2)cc1)Nc1ccc(C(O)(C(F)(F)F)C(F)(F)F)c(Cl)c1 [Example 89, N-(3-chloro-4-(1,1,1,3,3,3-hexafluoro-2-hydroxypropan-2-yl)phenyl)-2-(4-(N-cyclopropylsulfamoyl)phenyl)acetamide]"
4,≤ 1000 nM,"CC(C)C(O)(c1ccc(NC(=O)Cc2ccc(S(=O)(=O)NC3CC3)cc2)cc1)C(F)(F)F (centres unmarked) [Example 95, 2-(4-(N-cyclopropylsulfamoyl)phenyl)-N-(4-(1,1,1-trifluoro-2-hydroxy-3-methylbutan-2-yl)phenyl)acetamide]"
5,≤ 100 nM,"O=C(Nc1ccc(C(O)(C(F)(F)F)C(F)(F)F)cc1)C(O)c1ccc(S(=O)(=O)CC2CC2)cc1 (centres unmarked) [Example 114, 2-(4-((cyclopropylmethyl)sulfonyl)phenyl)-N-(4-(1,1,1,3,3,3-hexafluoro-2-hydroxypropan-2-yl)phenyl)-2-hydroxyacetamide]"
6,≤ 10 nM,"CCC(O)(c1ccc(NC(=O)Cc2ccc(S(=O)(=O)CC3CC3)cc2)cc1)C(F)(F)F (centres unmarked) [Example 83, 2-(4-((cyclopropylmethyl)sulfonyl)phenyl)-N-(4-(1,1,1-trifluoro-2-hydroxybutan-2-yl)phenyl)acetamide]"
7,≤ 1000 nM,"O=C(Cc1ccc(S(=O)(=O)NC2CC2)cc1)Nc1ccc(C(O)(C2CCCC2)C(F)(F)F)cc1 (centres unmarked) [Example 90, N-(4-(1-cyclopentyl-2,2,2-trifluoro-1-hydroxyethyl)phenyl)-2-(4-(N-cyclopropylsulfamoyl)phenyl)acetamide]"
8,≤ 1000 nM,"CNS(=O)(=O)c1cccc(CC(=O)Nc2ccc(C(O)(C(F)(F)F)C(F)(F)F)cc2)c1 [Example 19, N-(4-(1,1,1,3,3,3-hexafluoro-2-hydroxypropan-2-yl)phenyl)-2-(3-(N-methylsulfamoyl)phenyl)acetamide]"
9,≤ 1000 nM,"CCS(=O)(=O)c1ccc(CC(=O)Nc2cc(Cl)c(C(O)(C(F)(F)F)C(F)(F)F)cc2OC)cc1 [Example 22, N-(5-chloro-4-(1,1,1,3,3,3-hexafluoro-2-hydroxypropan-2-yl)-2-methoxyphenyl)-2-(4-(ethylsulfonyl)phenyl)acetamide]"
10,≤ 1000 nM,"CCS(=O)(=O)c1ccc(CC(=O)Nc2ccc(C(O)(C(F)(F)F)C(F)(F)F)cn2)cc1 [Example 21, 2-(4-(ethylsulfonyl)phenyl)-N-(5-(1,1,1,3,3,3-hexafluoro-2-hydroxypropan-2-yl)pyridin-2-yl)acetamide]"
11,≤ 100 nM,"Cc1cc(S(=O)(=O)CC2CC2)ccc1CC(=O)Nc1ccc(C(O)(C(F)(F)F)C(F)(F)F)cc1 [Example 93, 2-(4-((cyclopropylmethyl)sulfonyl)-2-methylphenyl)-N-(4-(1,1,1,3,3,3-hexafluoro-2-hydroxypropan-2-yl)phenyl)acetamide]"
12,≤ 10 nM,"O=C(Cc1ccc(S(=O)(=O)CC2CC2)cc1)Nc1ccc(C(O)(C(F)(F)F)C(F)(F)F)cc1F [Example 46, 2-(4-((cyclopropylmethyl)sulfonyl)phenyl)-N-(2-fluoro-4-(1,1,1,3,3,3-hexafluoro-2-hydroxypropan-2-yl)phenyl)acetamide]"
13,≤ 1000 nM,"CCNS(=O)(=O)c1ccc(CC(=O)Nc2ccc(C(O)(C(F)(F)F)C(F)(F)F)cc2)cc1 [Example 10, 2-(4-(N-ethylsulfamoyl)phenyl)-N-(4-(1,1,1,3,3,3-hexafluoro-2-hydroxypropan-2-yl)phenyl)acetamide]"
14,≤ 1000 nM,"CCS(=O)(=O)c1ccc(CC(=O)Nc2ccc(C(O)(C(F)(F)F)C(F)(F)F)cc2C)cc1 [Example 31, 2-(4-(ethylsulfonyl)phenyl)-N-(4-(1,1,1,3,3,3-hexafluoro-2-hydroxypropan-2-yl)-2-methylphenyl)acetamide]"
15,≤ 100 nM,"O=C(Cc1ccc(S(=O)(=O)CC2CC2)cc1)Nc1ccc(C(O)(C2CC2)C(F)(F)F)cc1 (centres unmarked) [Example 67, N-(4-(1-cyclopropyl-2,2,2-trifluoro-1-hydroxyethyl)phenyl)-2-(4-((cyclopropylmethyl)sulfonyl)phenyl)acetamide]"
16,≤ 1000 nM,"CCS(=O)(=O)c1ccc(CC(=O)Nc2ccc(C(O)(C(C)C)C(F)(F)F)cc2)cc1 (centres unmarked) [Example 65, 2-(4-(ethylsulfonyl)phenyl)-N-(4-(1,1,1-trifluoro-2-hydroxy-3-methylbutan-2-yl)phenyl)acetamide]"
